# Assay results from patent US6472348B1, “Pyridone derivatives and herbicides” (Kumiai Chemical Industry Co., Ltd., priority 1996, dated 2002).
# Tests used:
# [1] = system: barnyardgrass (Ec); assay: Test Example 1: herbicidal effects by paddy field soil treatment; type: in vivo; conditions: 100 g of the active ingredient per 10 ares, 21st day after the application, index 0-5 of Table 47;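 note: grade of growth control; 5 = at least 90%; 4 = 70 to 90%; 3 = 50 to 70%; 2 = 30 to 50%; 1 = 10 to 30%; 0 = under 10%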
# Procedure, shortened: (§1)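 Herbicidal effect was scored against a graded standard 21 days after treatment. Seeds were sown in puddled, leveled paddy soil flooded to 3 cm depth, and the active ingredient was applied at 100 g per 10 ares before greenhouse culture.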
# [2] = system: bulrush (Sc); assay: as above; type: in vivo; conditions: 100 g of the active ingredient per 10 ares, 21st day after the application, index 0-5 of Table 47;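 note: grade of growth control; 5 = at least 90%; 4 = 70 to 90%; 3 = 50 to 70%; 2 = 30 to 50%; 1 = 10 to 30%; 0 = under 10%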
# Procedure, shortened: as §1
# [3] = system: monochoria (Mo); assay: as above; type: in vivo; conditions: 100 g of the active ingredient per 10 ares, 21st day after the application, index 0-5 of Table 47;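 note: grade of growth control; 5 = at least 90%; 4 = 70 to 90%; 3 = 50 to 70%; 2 = 30 to 50%; 1 = 10 to 30%; 0 = under 10%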
# Procedure, shortened: as §1
# [4] = system: Digitaria ciliaris (Di); assay: Test Example 2: herbicidal effects by upland field soil treatment; type: in vivo; conditions: 100 g of the active ingredient per 10 ares, evaluated on the 21st day after application;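 note: grade of growth control; 5 = at least 90%; 4 = 70 to 90%; 3 = 50 to 70%; 2 = 30 to 50%; 1 = 10 to 30%; 0 = under 10%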
# Description: (§2) (Test on Herbicidal Effects by Upland Field Soil Treatment)
# [5] = system: barnyardgrass (Ec); assay: as above; type: in vivo; conditions: 100 g of the active ingredient per 10 ares, evaluated on the 21st day after application
# Description: as §2
# [6] = system: common lambsquarters (Ch); assay: as above; type: in vivo; conditions: 100 g of the active ingredient per 10 ares, evaluated on the 21st day after application
# Description: as §2
# [7] = system: pale smartweed (Po); assay: as above; type: in vivo; conditions: 100 g of the active ingredient per 10 ares, evaluated on the 21st day after application
# Description: as §2
# [8] = system: rice flatsedge (Ci); assay: as above; type: in vivo; conditions: 100 g of the active ingredient per 10 ares, evaluated on the 21st day after application
# Description: as §2
# [9] = system: slender amaranth (Am); assay: as above; type: in vivo; conditions: 100 g of the active ingredient per 10 ares, evaluated on the 21st day after application
# Description: as §2
# [10] = system: Diaitaria ciliaris (Di); assay: Test Example 3: herbicidal effects by upland field foliage treatment; type: in vivo; design: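 grade of growth control; 5 = at least 90%; 4 = 70 to 90%; 3 = 50 to 70%; 2 = 30 to 50%; 1 = 10 to 30%; 0 = under 10%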; conditions: 100 g active ingredient per 10 ares, evaluated 14th day after treatment
# Procedure, shortened: (§3)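 Sowing into sand pots with a 120 cm^2 surface, followed by soil covering and 2 weeks of greenhouse growth, preceded the leaf treatment. Scoring of weed control took place on the 14th day afterwards according to set evaluation criteria.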
# [11] = system: barnyardgrass (Ec); assay: as above; type: in vivo; design: scale not given here; conditions: 100 g active ingredient per 10 ares, evaluated 14th day after treatment
# Procedure, shortened: as §3
# [12] = system: common lambsquarters (Ch); assay: as above; type: in vivo; design: scale not given here; conditions: 100 g active ingredient per 10 ares, evaluated 14th day after treatment
# Procedure, shortened: as §3
# [13] = system: pale smartweed (Po); assay: as above; type: in vivo; design: scale not given here; conditions: 100 g active ingredient per 10 ares, evaluated 14th day after treatment
# Procedure, shortened: as §3
# [14] = system: rice flatsedge (Ci); assay: as above; type: in vivo; design: scale not given here; conditions: 100 g active ingredient per 10 ares, evaluated 14th day after treatment
# Procedure, shortened: as §3
# [15] = system: slender amaranth (Am); assay: as above; type: in vivo; design: scale not given here; conditions: 100 g active ingredient per 10 ares, evaluated 14th day after treatment
# Procedure, shortened: as §3
# [16] = system: wheat (Tr); assay: Test Example 9: crop plant selectivity by upland field foliage treatment (wheat), phytotoxicity; conditions: dose 1.6 g ai/10a, 14th day after treatment
# Procedure, shortened: (§4)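 Wheat and broadleaf weeds were sown together in sand-filled pots and grown for 2 weeks in a greenhouse before foliar treatment. Herbicidal effect on weeds and phytotoxicity to wheat were scored visually against set grading standards on day 14 after treatment, with plants kept in the greenhouse.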
# [17] = system: China jute (Ab); assay: Test Example 9: crop plant selectivity by upland field foliage treatment (wheat), herbicidal effects; type: in vivo; design: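 grade of growth control; 5 = at least 90%; 4 = 70 to 90%; 3 = 50 to 70%; 2 = 30 to 50%; 1 = 10 to 30%; 0 = under 10%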; conditions: dose 1.6 g ai/10a, 14th day after treatment
# Procedure, shortened: as §4
# [18] = system: common lambsquarters (Ch); assay: as above; type: in vivo; design: scale not given here; conditions: dose 1.6 g ai/10a, 14th day after treatment
# Procedure, shortened: as §4
# [19] = system: pale smartweed (Po); assay: as above; type: in vivo; design: scale not given here; conditions: dose 1.6 g ai/10a, 14th day after treatment
# Procedure, shortened: as §4
# [20] = system: slender amaranth (Am); assay: as above; type: in vivo; design: scale not given here; conditions: dose 1.6 g ai/10a, 14th day after treatment
# Procedure, shortened: as §4
# [21] = system: soybean (Gl); assay: Test Example 10: crop plant selectivity by upland field foliage treatment (soybean), phytotoxicity; conditions: dose 1.6 g ai/10a, 14th day after treatment
# Experimental: (§5) (Test on Crop Plant Selectivity by Upland Field Foliage Treatment)
# (§6) In a plastic pot (surface area: 600 cm^2) filled with sand, soybean (Gl), pale smartweed (Po), slender amaranth (Am), common lambsquarters (Ch) and China jute (Ab) were sown and cultured in a green house for 2 weeks. […] The plants were then cultured in a green house, and the evaluation of the herbicidal effects and phytotoxicity was conducted on the 14th day after the treatment in accordance with the standards as identified in Table 47.
# [22] = system: China jute (Ab); assay: Test Example 10: crop plant selectivity by upland field foliage treatment (soybean), herbicidal effects; type: in vivo; conditions: dose 1.6 g ai/10a, 14th day after treatment
# Experimental: as §5, §6
# [23] = system: common lambsquarters (Ch); assay: as above; type: in vivo; conditions: dose 1.6 g ai/10a, 14th day after treatment
# Experimental: as §5, §6
# [24] = system: pale smartweed (Po); assay: as above; type: in vivo; conditions: dose 1.6 g ai/10a, 14th day after treatment
# Experimental: as §5, §6
# [25] = system: slender amaranth (Am); assay: as above; type: in vivo; conditions: dose 1.6 g ai/10a, 14th day after treatment
# Experimental: as §5, §6
# [26] = system: corn (Ze); assay: Test Example 11: crop plant selectivity by upland field foliage treatment (corn), phytotoxicity; conditions: upland field foliage treatment, dose 1.6 g ai/10a, 14th day after treatment
# Procedure, shortened: (§7)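 Corn with pale smartweed, slender amaranth, common lambsquarters and China jute sown in sand-filled pots and grown 2 weeks in a greenhouse before foliage treatment. Herbicidal effect and crop phytotoxicity scored on day 14 after treatment against a rating standard.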
# [27] = system: China jute (Ab); assay: Test Example 11: crop plant selectivity by upland field foliage treatment (corn), herbicidal effects; type: in vivo; design: scale not given here; conditions: upland field foliage treatment (corn test), dose 1.6 g ai/10a, 14th day after treatment
# Procedure, shortened: as §7
# [28] = system: common lambsquarters (Ch); assay: as above; type: in vivo; design: scale not given here; conditions: upland field foliage treatment (corn test), dose 1.6 g ai/10a, 14th day after treatment
# Procedure, shortened: as §7
# [29] = system: pale smartweed (Po); assay: as above; type: in vivo; design: scale not given here; conditions: upland field foliage treatment (corn test), dose 1.6 g ai/10a, 14th day after treatment
# Procedure, shortened: as §7
# [30] = system: slender amaranth (Am); assay: as above; type: in vivo; design: scale not given here; conditions: upland field foliage treatment (corn test), dose 1.6 g ai/10a, 14th day after treatment
# Procedure, shortened: as §7
# [31] = system: cotton (Go); assay: Test Example 4: crop plant selectivity by upland field soil treatment (cotton), phytotoxicity; type: in vivo; design: scale not given here; conditions: evaluated 21st day after application
# Procedure, shortened: (§8)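 Weeds and cotton, sown in sand and topped with soil, received a soil-applied treatment. Evaluation after three weeks in a greenhouse followed a standard rating scale.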
# [32] = system: Diaitaria ciliaris (Di); assay: Test Example 4: crop plant selectivity by upland field soil treatment (cotton), herbicidal effects; type: in vivo; conditions: evaluated 21st day after application
# Experimental: (§9) (Test on Crop Plant Selectivity by Upland Field Soil Treatment)
# In a plastic pot (surface area: 600 cm^2) filled with sand, cotton (Go), Diaitaria ciliaris (Di), green foxtail (Se), pale smartweed (Po), slender amaranth (Am), common lambsquarters (Ch) and China jute (Ab) were sown and covered with soil. […] The plants were then cultured in a green house, and the evaluation of the herbicidal effects and phytotoxicity was conducted on the 21st day after the application in accordance with the standards as identified in Table 47. Symbol—represents “not tested”.
# [33] = system: China jute (Ab); assay: as above; type: in vivo; design: scale not given here; conditions: evaluated 21st day after application
# Procedure, shortened: as §8
# [34] = system: common lambsquarters (Ch); assay: as above; type: in vivo; design: scale not given here; conditions: evaluated 21st day after application
# Procedure, shortened: as §8
# [35] = system: green foxtail (Se); assay: as above; type: in vivo; design: scale not given here; conditions: evaluated 21st day after application
# Procedure, shortened: as §8
# [36] = system: pale smartweed (Po); assay: as above; type: in vivo; design: scale not given here; conditions: evaluated 21st day after application
# Procedure, shortened: as §8
# [37] = system: slender amaranth (Am); assay: as above; type: in vivo; design: scale not given here; conditions: evaluated 21st day after application
# Procedure, shortened: as §8
# [38] = system: soybean (Gl); assay: Test Example 6: crop plant selectivity by upland field soil treatment (soybean), phytotoxicity; type: in vivo; design: scale not given here; conditions: dose 1.6 g ai/10a, 21st day after application
# Procedure, shortened: (§10)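 Seeds are sown in sand and covered with soil. The soil is treated with test compound. Pots are kept in a greenhouse. Weed control and soybean damage are rated visually 21 days after application.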
# [39] = system: Diaitaria ciliaris (Di); assay: Test Example 6: crop plant selectivity by upland field soil treatment (soybean), herbicidal effects; type: in vivo; conditions: dose 1.6 g ai/10a, 21st day after application
# Experimental: as §9
# (§11) In a plastic pot (surface area: 600 cm^2) filled with sand, soybean (Gl), Diaitaria ciliaris (Di), green foxtail (Se), Johnsongrass (So), pale smartweed (Po), slender amaranth (Am), common lambsquarters (Ch) and China jute (Ab) were sown and covered with soil. […] The plants were then cultured in a green house, and the evaluation of the herbicidal effects and phytotoxicity was conducted on the 21st day after the application in accordance with the standards as identified in Table 47. Symbol—represents “not tested”.
# [40] = system: Johnsongrass (So); assay: as above; type: in vivo; conditions: dose 1.6 g ai/10a, 21st day after application
# Experimental: as §9, §11
# [41] = system: China jute (Ab); assay: as above; type: in vivo; design: scale not given here; conditions: dose 1.6 g ai/10a, 21st day after application
# Procedure, shortened: as §10
# [42] = system: common lambsquarters (Ch); assay: as above; type: in vivo; design: scale not given here; conditions: dose 1.6 g ai/10a, 21st day after application
# Procedure, shortened: as §10
# [43] = system: green foxtail (Se); assay: as above; type: in vivo; design: scale not given here; conditions: dose 1.6 g ai/10a, 21st day after application
# Procedure, shortened: as §10
# [44] = system: pale smartweed (Po); assay: as above; type: in vivo; design: scale not given here; conditions: dose 1.6 g ai/10a, 21st day after application
# Procedure, shortened: as §10
# [45] = system: slender amaranth (Am); assay: as above; type: in vivo; design: scale not given here; conditions: dose 1.6 g ai/10a, 21st day after application
# Procedure, shortened: as §10
compound,measurement,setting,value
"C#CCOCc1cc(-c2ccc(C(F)(F)F)n(C)c2=O)c(F)cc1Cl [Compound No. 1-199, 3-(4-chloro-2-fluoro-5-propargyloxymethylphenyl)-1-methyl-6-trifluoromethyl-2(1H)-pyridone]",Herbicidal effects Ec,[1],5
same,Herbicidal effects Sc,[2],5
same,Herbicidal effects Mo,[3],5
same,Herbicidal effects Di,[4],5
same,Herbicidal effects Ec,[5],5
same,Herbicidal effects Ch,[6],5
same,Herbicidal effects Po,[7],5
same,Herbicidal effects Ci,[8],5
same,Herbicidal effects Am,[9],5
same,Herbicidal effects Di,[10],5
same,Herbicidal effects Ec,[11],4
same,Herbicidal effects Ch,[12],5
same,Herbicidal effects Po,[13],5
same,Herbicidal effects Ci,[14],5
same,Herbicidal effects Am,[15],5
same,Phytotoxicity Tr,[16],2
same,Herbicidal effects Ab,[17],5
same,Herbicidal effects Ch,[18],5
same,Herbicidal effects Po,[19],5
same,Herbicidal effects Am,[20],5
same,Phytotoxicity Gl,[21],2
same,Herbicidal effects Ab,[22],5
same,Herbicidal effects Ch,[23],5
same,Herbicidal effects Po,[24],5
same,Herbicidal effects Am,[25],5
same,Phytotoxicity Ze,[26],2
same,Herbicidal effects Ab,[27],5
same,Herbicidal effects Ch,[28],5
same,Herbicidal effects Po,[29],5
same,Herbicidal effects Am,[30],5
same,melting point,,99 to 101 °C
CCc1cc2c(-c3cn(C)c(C(F)(F)F)cc3=O)c(F)cc(Cl)c2o1 [Compound 9-2],Herbicidal effects Ec,[1],5
same,Herbicidal effects Sc,[2],5
same,Herbicidal effects Mo,[3],5
same,Herbicidal effects Di,[4],5
same,Herbicidal effects Ec,[5],5
same,Herbicidal effects Ch,[6],5
same,Herbicidal effects Po,[7],5
same,Herbicidal effects Ci,[8],5
same,Herbicidal effects Am,[9],5
same,Herbicidal effects Di,[10],5
same,Herbicidal effects Ec,[11],5
same,Herbicidal effects Ch,[12],5
same,Herbicidal effects Po,[13],5
same,Herbicidal effects Ci,[14],5
same,Herbicidal effects Am,[15],5
same,Phytotoxicity Go,[31]; dose 1.6 g ai/10 a,0
same,Phytotoxicity Go,[31]; dose 6.3 g ai/10 a,0
same,Herbicidal effects Di,[32]; dose 1.6 g ai/10 a,5
same,Herbicidal effects Di,[32]; dose 6.3 g ai/10 a,5
same,Herbicidal effects Ab,[33]; dose 1.6 g ai/10 a,5
same,Herbicidal effects Ab,[33]; dose 6.3 g ai/10 a,5
same,Herbicidal effects Ch,[34]; dose 1.6 g ai/10 a,5
same,Herbicidal effects Ch,[34]; dose 6.3 g ai/10 a,5
same,Herbicidal effects Se,[35]; dose 1.6 g ai/10 a,5
same,Herbicidal effects Se,[35]; dose 6.3 g ai/10 a,5
same,Herbicidal effects Po,[36]; dose 1.6 g ai/10 a,5
same,Herbicidal effects Po,[36]; dose 6.3 g ai/10 a,5
same,Herbicidal effects Am,[37]; dose 1.6 g ai/10 a,5
same,Herbicidal effects Am,[37]; dose 6.3 g ai/10 a,5
same,Phytotoxicity Gl,[38],1
same,Herbicidal effects Di,[39],5
same,Herbicidal effects So,[40],5
same,Herbicidal effects Ab,[41],5
same,Herbicidal effects Ch,[42],5
same,Herbicidal effects Se,[43],5
same,Herbicidal effects Po,[44],5
same,Herbicidal effects Am,[45],5
